Assay results published in patent US20260297542A1, “HERBICIDE RESISTANT PLANTS” (SYNGENTA CROP PROTECTION AG, priority 2023, published 2026).
Substitutions are numbered along the chain they refer to.

How the values were obtained:
[1] = target: T1, His-TEV-AtPP01 ΔcTP L479M (SEQ ID NO: 371) (Arabidopsis thaliana, UniProt P55826, L479M); experiment: activity rate of PPO variant in in vitro assay; assay type: biochemical; conditions: role: substrate; 1 uM protoporphyrinogen IX; no inhibitor
T1 construct: with cTPs removed; made in house; host or cells: E. coli BL21 (DE3), His GraviTrap, partially purified
T1 sequence (P55826 with tags, fused parts or gaps L479M): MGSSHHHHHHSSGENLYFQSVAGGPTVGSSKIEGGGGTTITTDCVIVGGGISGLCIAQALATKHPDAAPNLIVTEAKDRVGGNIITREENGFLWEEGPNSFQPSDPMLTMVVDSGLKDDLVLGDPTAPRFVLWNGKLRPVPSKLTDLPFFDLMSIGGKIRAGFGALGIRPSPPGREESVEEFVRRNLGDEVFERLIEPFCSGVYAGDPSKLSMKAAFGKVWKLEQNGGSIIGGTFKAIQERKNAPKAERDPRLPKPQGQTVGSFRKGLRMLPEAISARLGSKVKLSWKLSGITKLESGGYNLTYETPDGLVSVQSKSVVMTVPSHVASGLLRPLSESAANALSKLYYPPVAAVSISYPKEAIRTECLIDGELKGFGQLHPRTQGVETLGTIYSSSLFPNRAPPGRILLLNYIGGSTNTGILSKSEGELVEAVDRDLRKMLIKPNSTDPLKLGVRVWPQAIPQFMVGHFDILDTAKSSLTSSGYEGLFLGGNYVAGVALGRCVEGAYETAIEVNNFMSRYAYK
From the text: (§1) A pET24 plasmid containing a DNA sequence encoding variants of AtPPO1 derived from Arabidopsis thaliana with cTPs removed and both a 6×His tag and TEV protease cleavage tag added at the N-terminus, codon-optimised for expression in E. coli, and under control of a T7 promoter, was synthesised by Twist Bioscience. The following variants were synthesised: WT AtPPO1 (SEQ ID NO: 370), AtPPO1 L479M (SEQ ID NO: 371), AtPPO1 L479N (SEQ ID NO: 372), AtPPO1 S305L Y426V (SEQ ID NO: 374) and AtPPO1 S305L Y426V L479M (SEQ ID NO: 373). This plasmid was expressed in E. coli BL21 (DE3) with 50 μg/mL kanamycin selection. 10 mL of overnight cultures grown at 37° C. were used to inoculate 1 L AIM (AIM-Terrific Broth Base including Trace elements, Formedium) in 2 L shake flasks. Cultures were grown at 37° C., 200 rpm for 3 hours and then overnight at 26° C. Cells were harvested centrifugation. 5-15 g of cell pellet was lysed in and resuspended in ratio of 1:1.5 in lysis buffer (20 mM Tris pH8, 500 mM sodium chloride, 10% glycerol, 1× complete Protease EDTA-free Inhibitor Tablet (Roche), 10 mM imidazole). The resuspension was sonicated at 75% using 10 cycles of 30 seconds, 40 seconds off. After sonication Triton X-100 was added to the lysates at a final concentration of 0.5%. The lysates were centrifuged at 20,000 rpm for 25 min at 4° C. Cleared lysates were loaded on His GraviTrap (Cytiva) columns, washed with 20 mL of lysis buffer and eluted in elution buffer (20 mM Tris pH8, 500 mM sodium chloride, 10% glycerol, 200 mM imidazole, 0.03% (v/v) Triton X-100). The eluate was desalted on a PD10 column and 2.5-3.2 mL was collected. Protein concentration was measured and calculated using the absorbance at 280 nm. Extracts were diluted 1 in 4 and 10 uL was analysed by SDS PAGE.
(§2) Partially purified Protoporphyrinogen Oxidase enzymes were assayed for activity using fluorescence adapted from the method of Shepherd & Dailey (Anal Biochem. 2005 344(1) 115-121). The assay was performed in black 384 well plates with a clear bottom and the total volume of the reaction mixture was 91 ul. The final assay mixture contained 100 mM K2HPO4 pH7.2, 1 mM Na2EDTA, 5 mM DTT, 20% glycerol (v/v), 0.05% Tween 20 (v/v), 1.1% DMSO (v/v), 1 uM protoporphyrinogen IX and 1.5 nM enzyme. Compounds were dissolved in DMSO at 1 mM and a 4-fold serial dilution carried out to give 8 rates. 1 ul was added to the assay mixture. This gave final compound concentrations of 11, 2.7, 0.69, 0.17, 0.04, 0.01, 0.002, 0.0007 uM. Enzyme and inhibitor were preincubated for 5 minutes prior to starting the reaction with the addition of the substrate. […] IC50s were calculated using GraphPad Prism 7.05 nonlinear regression (Table 6). Each compound was tested in duplicate.

[2] = target: T2, His-TEV-AtPP01 ΔcTP V030 (SEQ ID NO: 374) (Arabidopsis thaliana, UniProt P55826, S305L/Y426V); experiment: activity rate of PPO variant in in vitro assay; assay type: biochemical; conditions: role: substrate; 1 uM protoporphyrinogen IX; no inhibitor
T2 construct: with cTPs removed; made in house; host or cells: E. coli BL21 (DE3), His GraviTrap, partially purified
T2 sequence (P55826 with tags, fused parts or gaps S305L/Y426V): T1 sequence (P55826 with tags, fused parts or gaps L479M) with S290L, Y411V, M464L
From the text: as §1, §2

## C=Cc1c2[nH]c(c1C)Cc1[nH]c(c(CCC(=O)O)c1C)Cc1[nH]c(c(C)c1CCC(=O)O)Cc1[nH]c(c(C)c1C=C)C2 [protoporphyrinogen IX]
[1]
  Rate: 9.9 rfu second^−1 pmole^−1
[2]
  Rate: 5.3 rfu second^−1 pmole^−1
